In ChEMBL document CHEMBL1131254, “Molecular modeling studies of the DNA-topoisomerase I ternary cleavable complex with camptothecin” (J Med Chem, 1998):
Calls of active or inactive are those of the source. No cut-off for these calls is given here.

These compounds were tested against T1, DNA topoisomerase 1 (Homo sapiens) (UniProt P11387) (assay: The compound was tested for top1-induced DNA cleavage activity; - indicates inactive).
T1 sequence (whole entry): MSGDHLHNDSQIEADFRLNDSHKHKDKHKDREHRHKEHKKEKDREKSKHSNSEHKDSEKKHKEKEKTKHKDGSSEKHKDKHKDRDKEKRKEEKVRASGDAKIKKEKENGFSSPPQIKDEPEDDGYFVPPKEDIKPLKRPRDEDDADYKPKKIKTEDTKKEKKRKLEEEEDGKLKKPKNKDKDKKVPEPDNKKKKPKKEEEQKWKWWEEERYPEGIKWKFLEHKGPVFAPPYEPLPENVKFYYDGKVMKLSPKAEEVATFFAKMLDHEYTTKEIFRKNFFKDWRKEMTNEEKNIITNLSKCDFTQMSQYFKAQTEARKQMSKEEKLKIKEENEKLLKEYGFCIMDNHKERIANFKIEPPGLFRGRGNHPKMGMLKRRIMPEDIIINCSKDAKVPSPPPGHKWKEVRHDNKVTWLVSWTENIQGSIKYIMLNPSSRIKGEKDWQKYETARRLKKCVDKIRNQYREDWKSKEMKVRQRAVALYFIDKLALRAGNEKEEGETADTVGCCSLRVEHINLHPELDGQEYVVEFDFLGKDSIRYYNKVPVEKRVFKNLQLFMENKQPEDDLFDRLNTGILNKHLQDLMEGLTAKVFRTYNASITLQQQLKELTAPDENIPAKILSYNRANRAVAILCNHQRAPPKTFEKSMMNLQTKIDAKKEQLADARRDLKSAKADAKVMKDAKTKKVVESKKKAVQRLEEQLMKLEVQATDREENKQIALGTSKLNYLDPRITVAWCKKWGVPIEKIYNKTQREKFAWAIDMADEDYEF
Type: functional
In the case of `CC[C@@]1(O)C(=O)OCc2cc3c(cc21)-c1nc2ccccc2cc1C3`, the inhibition is reported as “inactive”. `CC[C@@]1(O)C(=O)OCc2c1cc1n(c2=O)Cc2cc3cc(OC)c(OC)cc3nc2-1` (stereo in doubt; form 1) was tested, and the inhibition was “inactive”. `CC[C@@]1(O)C(=O)OCc2c1cc1n(c2=O)Cc2cc3cc(OC)c(OC)cc3nc2-1` (stereo in doubt; form 3) was tested, and the inhibition was “inactive”. For `CC[C@H]1C(=O)OCc2c1cc1n(c2=O)Cc2cc3ccccc3nc2-1`, the inhibition was “inactive”. For `CC[C@]1(O)C(=O)OCc2c1cc1n(c2=O)Cc2cc3ccccc3nc2-1`, the inhibition was “inactive”. With `CC[C@@]1(O)C(=O)OCc2c1cc1n(c2=O)Cc2cc3cc(OC)c(OC)cc3nc2-1` (stereo in doubt; form 2) the inhibition was “inactive”. With `CC[C@@]1(O)C(=O)OCc2c1ccc1c2Cc2cc3ccccc3nc2-1` the inhibition was “inactive”.

These compounds were tested against T1, DNA topoisomerase 1 (Homo sapiens) (assay: The compound was tested for top1-induced DNA cleavage activity; + indicates comparable to CPT).
Type: functional
In the case of `CC[C@@]1(O)C(=O)OCc2c1cc1n(c2=O)Cc2c-1nc1cnc(CN)cc1c2C`, the inhibition is reported as “comparable to CPT”.

What follows are compounds tested against T1, DNA topoisomerase 1 (Homo sapiens) (assay: The compound was tested for top1-induced DNA cleavage activity; ++ indicates more potent than CPT).
Type: functional
`CC[C@@]1(O)C(=O)OCc2c1cc1n(c2=O)Cc2c-1nc1cc3c(cc1c2CN1CCN(C)CC1)OCCO3` was tested, and the inhibition was “more potent than CPT”. In the case of `CC[C@@]1(O)C(=O)OCc2c1cc1n(c2=O)Cc2c-1nc1cc3c(cc1c2CN1CCN(C)CC1)OCO3`, the inhibition is reported as “more potent than CPT”. For `CC[C@@]1(O)C(=O)OCc2c1cc1n(c2=O)Cc2cc3cc(N)c(O)cc3nc2-1`, the inhibition was “more potent than CPT”.
